Test results published in patent US20230115945A1, “AMINOPYRIMIDINE COMPOUNDS” (TYRA BIOSCIENCES, INC., priority 2019, published 2023).

Experiments:
[1] = molecular target: T1, FGFR2 (Homo sapiens, UniProt P21802); assay: Kinase binding assay (Kd), FGFR2; conditions: 11-point 3-fold dilution, qPCR readout
T1 construct: made in house; host or cells: E. coli host derived from BL21, infected with T7 phage
In short: (§1)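 Competition binding: kinase-tagged T7 phage, ligand-coated streptavidin beads and an 11-point 3-fold compound series (0.9% DMSO final) were incubated 1 h at room temperature. Bead-bound kinase was eluted and quantified by qPCR. Kd was fitted to the Hill equation with slope fixed at −1.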

[2] = molecular target: T2, FGFR4 (Homo sapiens, UniProt P22455); assay: Kinase binding assay (Kd), FGFR4; conditions: 11-point 3-fold dilution, qPCR readout
T2 construct: made in house; host or cells: E. coli host derived from BL21, infected with T7 phage
T2 sequence (P22455 22-802): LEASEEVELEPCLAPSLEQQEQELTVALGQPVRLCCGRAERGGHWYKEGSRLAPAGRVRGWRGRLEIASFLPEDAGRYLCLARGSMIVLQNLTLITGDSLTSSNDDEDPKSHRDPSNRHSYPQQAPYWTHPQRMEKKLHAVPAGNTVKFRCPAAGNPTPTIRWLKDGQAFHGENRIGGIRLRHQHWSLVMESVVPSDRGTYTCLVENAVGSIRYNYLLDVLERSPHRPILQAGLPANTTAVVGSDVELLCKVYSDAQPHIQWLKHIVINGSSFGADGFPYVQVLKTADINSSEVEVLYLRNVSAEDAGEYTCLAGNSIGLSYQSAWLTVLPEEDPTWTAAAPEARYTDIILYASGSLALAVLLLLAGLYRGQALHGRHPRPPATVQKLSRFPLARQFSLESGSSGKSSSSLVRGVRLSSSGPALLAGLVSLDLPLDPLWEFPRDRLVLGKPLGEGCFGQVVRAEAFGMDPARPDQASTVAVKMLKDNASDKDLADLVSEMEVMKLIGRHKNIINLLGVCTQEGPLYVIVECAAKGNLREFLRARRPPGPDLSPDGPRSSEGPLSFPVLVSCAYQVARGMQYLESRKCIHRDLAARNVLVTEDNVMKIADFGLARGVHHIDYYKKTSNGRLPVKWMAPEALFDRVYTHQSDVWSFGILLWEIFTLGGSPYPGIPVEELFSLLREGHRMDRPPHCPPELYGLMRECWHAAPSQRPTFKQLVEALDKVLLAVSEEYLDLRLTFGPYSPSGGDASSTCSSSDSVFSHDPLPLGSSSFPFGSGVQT
In short: as §1

[3] = molecular target: T3, FGFR3 (Homo sapiens, UniProt P22607); assay: Kinase binding assay (Kd), FGFR3; conditions: 11-point 3-fold dilution, qPCR readout
T3 construct: made in house; host or cells: E. coli host derived from BL21, infected with T7 phage
T3 sequence (P22607 23-806): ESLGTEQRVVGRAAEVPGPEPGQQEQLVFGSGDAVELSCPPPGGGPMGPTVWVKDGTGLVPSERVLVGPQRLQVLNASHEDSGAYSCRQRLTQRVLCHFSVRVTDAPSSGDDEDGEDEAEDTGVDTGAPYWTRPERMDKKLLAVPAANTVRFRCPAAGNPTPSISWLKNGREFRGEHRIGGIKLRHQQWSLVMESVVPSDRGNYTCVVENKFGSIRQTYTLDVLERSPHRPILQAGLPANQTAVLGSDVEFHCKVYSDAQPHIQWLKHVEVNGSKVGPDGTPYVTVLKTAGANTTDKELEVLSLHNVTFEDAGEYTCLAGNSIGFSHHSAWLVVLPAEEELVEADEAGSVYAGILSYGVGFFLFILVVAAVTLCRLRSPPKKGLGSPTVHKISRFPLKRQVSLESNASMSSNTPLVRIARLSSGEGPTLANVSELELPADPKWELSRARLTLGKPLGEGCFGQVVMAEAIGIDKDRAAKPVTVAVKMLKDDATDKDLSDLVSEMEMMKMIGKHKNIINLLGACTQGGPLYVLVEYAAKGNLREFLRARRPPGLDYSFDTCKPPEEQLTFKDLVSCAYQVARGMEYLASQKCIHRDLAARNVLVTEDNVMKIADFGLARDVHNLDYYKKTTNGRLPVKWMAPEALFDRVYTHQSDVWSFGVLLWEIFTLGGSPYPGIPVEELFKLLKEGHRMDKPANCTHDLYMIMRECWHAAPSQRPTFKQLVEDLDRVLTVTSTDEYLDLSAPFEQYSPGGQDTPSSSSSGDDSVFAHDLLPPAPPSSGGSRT
In short: as §1

[4] = system: SNU-16 cells (Gastric Carcinoma, FGFR2 amplification); assay: Cancer cell line cell viability assay, SNU-16; type: cell-based; conditions: Homo sapiens, 72 hours, Cell Titer-Glo 2.0, read-out: Cancer Cell Viability Assays SNU-16 (IC50 nM)
Source text: (§2) [table] To detect the change of intracellular ATP by Cell Titer-Glo® and to evaluate the inhibitory effect of the compounds on cancer cell lines by determining the in vitro IC50 value of the compounds. Cell Titer-Glo® 2.0 Luminescent cell viability assay reagent was purchased from Promega (Madison, Wis.). RT112/84, SNU-16, and KG-1 cell lines were purchased from American Type Culture Collection (Manassas, Va.). UM-UC-14 cell line was purchased from Sigma (St. Louis, Mo.). RT112/84, UM-UC-14, SNU-16, and KG-1 cells were cultured in RPMI1640 media supplemented with 10% fetal bovine serum. Cultures were maintained at 37° C. in a humidified atmosphere of 5% CO2 and 95% air. Cell Viability Assay Procedure: Cells were plated in 96-well clear bottom/white plates (Corning #3903) at 10,000 cells/well in 100 μl of media, incubated overnight. The next day, test compound DMSO stock solutions were made at 10 mM and 2 μM final concentration. Compounds were then added to cells in a 9-dose, […] dilution series starting at 30 μM with an HP 300e Digital Dispenser (each dose was applied in triplicate). DMSO was backfilled to each well up to 301 nL total volume of test compound+DMSO, and a total of 301 nL DMSO was added to a control/no test compound well in triplicate. The cells in cell culture plates were incubated with the compounds at 37° C. and 5% CO2 for 72 hours. Then 50 μl of Cell Titer Glo 2.0 reagent was added to each well of the cell culture plates. The contents were covered from light and mixed on an orbital shaker at room temperature for 10 min. Luminescence was recorded by a Synergy H1 Microplate Reader (Biotek, Winooski, Vt.). Cells were assessed as a percentage of DMSO only treated control cells. Curves were plotted and IC50 values were calculated using the GraphPad Prism 8 program based on a sigmoidal dose-response equation (4 parameter).

[5] = system: RT112/84 cells (Bladder Cancer, FGFR3-TACC3 fusion); assay: Cancer cell line cell viability assay, RT112/84; type: cell-based; conditions: Homo sapiens, 72 hours, Cell Titer-Glo 2.0, read-out: Cancer Cell Viability Assays RT112/84 (IC50 nM)
Source text: as §2

[6] = molecular target: T4, FGFR1 (Homo sapiens, UniProt P11362); assay: Kinase binding assay (Kd), FGFR1; conditions: 11-point 3-fold dilution, qPCR readout
T4 construct: made in house; host or cells: E. coli host derived from BL21, infected with T7 phage
T4 sequence (P11362 22-822): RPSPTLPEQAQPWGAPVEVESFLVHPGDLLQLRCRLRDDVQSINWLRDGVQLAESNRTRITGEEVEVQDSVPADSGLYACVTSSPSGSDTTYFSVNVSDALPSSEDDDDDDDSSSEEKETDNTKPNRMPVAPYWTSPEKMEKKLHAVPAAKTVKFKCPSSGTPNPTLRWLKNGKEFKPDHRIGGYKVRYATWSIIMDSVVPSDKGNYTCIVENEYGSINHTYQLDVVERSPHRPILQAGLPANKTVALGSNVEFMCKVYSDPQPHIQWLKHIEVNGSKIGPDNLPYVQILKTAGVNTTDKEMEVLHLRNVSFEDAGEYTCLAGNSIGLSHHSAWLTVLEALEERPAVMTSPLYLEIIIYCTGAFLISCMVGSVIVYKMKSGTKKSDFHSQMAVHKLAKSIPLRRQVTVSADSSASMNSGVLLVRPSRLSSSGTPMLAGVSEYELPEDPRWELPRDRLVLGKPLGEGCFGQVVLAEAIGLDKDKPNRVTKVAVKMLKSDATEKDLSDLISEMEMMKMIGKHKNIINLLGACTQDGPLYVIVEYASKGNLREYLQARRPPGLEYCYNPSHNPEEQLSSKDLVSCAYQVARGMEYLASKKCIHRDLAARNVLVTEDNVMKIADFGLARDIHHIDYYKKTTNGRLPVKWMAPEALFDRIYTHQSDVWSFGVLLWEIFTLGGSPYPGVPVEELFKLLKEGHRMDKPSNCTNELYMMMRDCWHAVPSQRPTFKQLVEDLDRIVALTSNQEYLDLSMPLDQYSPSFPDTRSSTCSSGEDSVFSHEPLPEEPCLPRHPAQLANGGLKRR
In short: as §1

[7] = molecular target: T5, FGFR3 (V555M) (Homo sapiens, UniProt P22607, V555M); assay: Kinase binding assay (Kd), FGFR3 (V555M); conditions: 11-point 3-fold dilution, qPCR readout
T5 construct: made in house; host or cells: E. coli host derived from BL21, infected with T7 phage
T5 sequence (P22607 23-806 V555M): as the sequence (P22607 23-806) above, with V533M counted along it
In short: as §1

T1 sequence (P21802 22-821): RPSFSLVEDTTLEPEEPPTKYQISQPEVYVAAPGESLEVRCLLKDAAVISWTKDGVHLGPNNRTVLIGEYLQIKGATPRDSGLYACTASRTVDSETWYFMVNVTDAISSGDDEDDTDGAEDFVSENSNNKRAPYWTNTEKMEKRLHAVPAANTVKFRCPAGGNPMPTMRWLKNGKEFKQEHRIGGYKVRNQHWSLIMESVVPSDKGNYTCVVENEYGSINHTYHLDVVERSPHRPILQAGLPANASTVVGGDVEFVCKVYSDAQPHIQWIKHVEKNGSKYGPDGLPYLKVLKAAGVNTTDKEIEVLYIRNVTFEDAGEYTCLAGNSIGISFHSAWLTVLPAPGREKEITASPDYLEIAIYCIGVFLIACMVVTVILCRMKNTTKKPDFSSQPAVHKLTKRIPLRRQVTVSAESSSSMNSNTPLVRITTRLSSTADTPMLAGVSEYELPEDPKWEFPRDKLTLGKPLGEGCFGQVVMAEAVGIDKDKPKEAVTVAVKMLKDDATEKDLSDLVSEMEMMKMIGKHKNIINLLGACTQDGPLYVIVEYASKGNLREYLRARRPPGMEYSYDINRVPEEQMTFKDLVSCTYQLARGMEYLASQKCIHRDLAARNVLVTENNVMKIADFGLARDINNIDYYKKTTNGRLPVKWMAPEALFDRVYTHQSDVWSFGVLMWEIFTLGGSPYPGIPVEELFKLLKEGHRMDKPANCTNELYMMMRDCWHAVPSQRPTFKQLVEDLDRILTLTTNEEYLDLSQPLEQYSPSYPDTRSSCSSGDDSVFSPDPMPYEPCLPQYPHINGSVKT

Structure (SMILES) | Kd [1] [nM] | Kd [2] [nM] | Kd [3] [nM] | IC50 [4] [nM] | IC50 [5] [nM] | Kd [6] [nM] | Kd [7] [nM]
COc1cc(N=S2(=O)CCN(C)CC2)ccc1Nc1ncc(Cl)c(-c2c[nH]c3ccccc23)n1 [Example 38, 5-Chloro-4-(1H-indol-3-yl)-N-[2-methoxy-4-[(4-methyl-1-oxo-1,4-thiazinan-1-ylidene)-amino]phenyl]pyrimidin-2-amine] | 92 | 26 | 34 | 130 | 119 | 25 | 3
N=S1(=O)CCN(c2ccc(Nc3ncc(Cl)c(-c4c[nH]c5ccccc45)n3)cc2)CC1 [Example 53, 5-Chloro-N-[4-(1-imino-1-oxo-1,4-thiazinan-4-yl)phenyl]-4-(1H-indol-3-yl)pyrimidin-2-amine] | 3 | 74 | 11 | 31 | 22 | 5 | 1
CN1CCS(=O)(=Nc2ccc(Nc3ncc(Cl)c(-c4c[nH]c5ccccc45)n3)cc2)CC1 [Example 55, 5-Chloro-4-(1H-indol-3-yl)-N-[4-[(4-methyl-1-oxo-1,4-thiazinan-l-ylidene)amino]-phenyl]pyrimidin-2-amine] | 6 | 110 | 23 | 40 | 49 | 13 | 2
CN(C)C/C=C/C(=O)Nc1ccc2c(ccn2-c2nc(Nc3ccc(N=S(C)(C)=O)cc3)ncc2Cl)c1 [Example 67, (E)-N-[1-[5-Chloro-2-[4-[[dimethyl(oxo)-λ^6-sulfanylidene]amino]anilino]-pyrimidin-4-yl]indol-5-yl]-4-(dimethylamino)but-2-enamide] | 120 | 510 | 62 | 1450 | 421 | 130 | 9.8
C=CC(=O)Nc1ccc2c(ccn2-c2nc(Nc3ccc(N=S4(=O)CCN(C)CC4)cc3)ncc2Cl)c1 [Example 69, N-[1-[5-Chloro-2-[4-[(4-methyl-1-oxo-1,4-thiazinan-1-ylidene)amino]anilino]pyrimidin-4-yl]indol-5-yl]prop-2-enamide] | 28 | 160 | 14 | 14 | 82 | 33 | 3.8
C=CC(=O)Nc1ccc2c(ccn2-c2nc(Nc3ccc(S(C)(=N)=O)cc3)ncc2C)c1 (stereo not drawn) [Example 74, N-[1-[5-Methyl-2-[4-(methylsulfonimidoyl)anilino]-pyrimidin-4-yl]indol-5-yl]prop-2-enamide] | 77 | 560 | 41 | 9 | 713 | 140 | 20
C=CC(=O)Nc1ccc2c(cnn2-c2nc(Nc3ccc(N=S(C)(C)=O)cc3)ncc2Cl)c1 [Example 86, N-[1-[5-Chloro-2-[4-[[dimethyl(oxo)-λ^6-sulfanylidene]amino]anilino]-pyrimidin-4-yl]indazol-5-yl]prop-2-enamide] | 63 | 240 | 46 | – | – | 90 | 7.1
CS(C)(=O)=Nc1ccc(Nc2ncc(Cl)c(-n3ncc4cc(N)ccc43)n2)cc1 [Example 87, 1-[5-Chloro-2-[4-[[dimethyl(oxo)-λ^6-sulfanylidene]amino]anilino]-pyrimidin-4-yl]indazol-5-amine] | 130 | 2400 | 130 | – | – | 160 | 16
C=CC(=O)Nc1ccc2c(-c3nc(Nc4ccc(S(C)(=N)=O)cc4)ncc3Cl)c[nH]c2c1 (stereo not drawn) [Example 89, N-[3-[5-chloro-2-[4-(methylsulfonimidoyl)anilino]pyrimidin-4-yl]-1H-indol-6-yl]prop-2-enamide] | 50 | 510 | 70 | – | – | 76 | 7.5
C=CC(=O)Nc1ccc2c(-c3nc(Nc4ccc(S(=N)(=O)C5CC5)cc4)ncc3Cl)c[nH]c2c1 (stereo not drawn) [Example 90, N-[3-[5-Chloro-2-[4-(cyclopropylsulfonimidoyl)anilino]pyrimidin-4-yl]-1H-indol-6-yl]prop-2-enamide] | 59 | 360 | 41 | 71 | 81 | 47 | 4
C=CC(=O)Nc1cccc2c(-c3nc(Nc4ccc(S(C)(=N)=O)cc4)ncc3Cl)c[nH]c12 (stereo not drawn) [Example 91, N-[3-[5-chloro-2-[4-(methylsulfonimidoyl)anilino]pyrimidin-4-yl]-1H-indol-7-yl]prop-2-enamide] | 24 | 130 | 48 | 19 | 48 | 19 | 2

Continued, values first:

Kd [1] [nM] | Kd [2] [nM] | Kd [3] [nM] | IC50 [4] [nM] | IC50 [5] [nM] | Kd [6] [nM] | Kd [7] [nM] | Structure (SMILES)
11000 | 290 | 4700 | 73 | 100 | 4500 | – | CC(C)Oc1cc(N=S(C)(C)=O)ccc1Nc1ncc(Cl)c(-c2c[nH]c3ccccc23)n1 [Example 3, 5-chloro-N-[4-[[dimethyl(oxo)-λ^6-sulfanylidene]amino]-2-isopropoxy-phenyl]-4-(1H-indol-3-yl)pyrimidin-2-amine]
6 | 130 | 12 | 132 | 118 | 8 | 1 | Cc1cnc(Nc2ccc(N=S(C)(C)=O)nc2)nc1-c1c[nH]c2ccccc12 [Example 23, N-[6-[[dimethyl(oxo)-λ^6-sulfanylidene]amino]-3-pyridyl]-4-(1H-indol-3-yl)-5-methyl-pyrimidin-2-amine]
7 | 87 | 10 | 60 | 33 | 4 | 1 | Cc1cc(Nc2ncc(C)c(-c3c[nH]c4ccccc34)n2)ccc1N=S(C)(C)=O [Example 24, N-[4-[[dimethyl(oxo)-λ^6-sulfanylidene]amino]-3-methyl-phenyl]-4-(1H-indol-3-yl)-5-methyl-pyrimidin-2-amine]
9 | 89 | 13 | 117 | 63 | 7 | 2 | Cc1cnc(Nc2ccc(N=S(C)(C)=O)c(Cl)c2)nc1-c1c[nH]c2ccccc12 [Example 25, N-[3-chloro-4-[[dimethyl(oxo)-λ^6-sulfanylidene]amino]phenyl]-4-(1H-indol-3-yl)-5-methyl-pyrimidin-2-amine]
4 | 120 | 8 | 189 | 78 | 8 | 1 | Cc1cnc(Nc2ccc(N=S3(=O)CCN(C)CC3)cc2)nc1-c1c[nH]c2ccccc12 [Example 49, 4-(1H-Indol-3-yl)-5-methyl-N-[4-[(4-methyl-1-oxo-1,4-thiazinan-1-ylidene)amino]-phenyl]pyrimidin-2-amine]
6 | 130 | 18 | 45 | 48 | 10 | 3 | Cc1cnc(Nc2ccc(S(=N)(=O)C3CC3)cc2)nc1-c1c[nH]c2ccccc12 (stereo not drawn) [Example 51, N-[4-(Cyclopropyl-sulfonimidoyl)-phenyl]-4-(1H-indol-3-yl)-5-methyl-pyrimidin-2-amine]
9 | 390 | 24 | 83 | 76 | 27 | 6 | CS(=N)(=O)c1ccc(Nc2ncc(Cl)c(-c3c[nH]c4ccccc34)n2)cc1 (stereo not drawn) [Example 52, 5-Chloro-4-(1H-indol-3-yl)-N-[4-(methylsulfonimidoyl)-phenyl]pyrimidin-2-amine]
7 | 100 | 13 | 44 | 33 | 10 | 2 | Cc1cnc(Nc2ccc(N3CCS(=N)(=O)CC3)cc2)nc1-c1c[nH]c2ccccc12 [Example 54, N-[4-(1-Imino-1-oxo-1,4-thiazinan-4-yl)phenyl]-4-(1H-indol-3-yl)-5-methyl-pyrimidin-2-amine]
